Test system: Male Wistar rats
Test: Arterial blood oxygenation after repeated saline lung lavage in rats
Type: in vivo, rat
Conditions: TIP 500 μg/animal alone, intratracheally, 1.2 mL in NaCl 0.9%; lung-lavaged rats; up to 150 min after administration
Procedure: Male Wistar rats were prepared as disclosed in Example 5. NaCl 0.9% (open circles), LUSUPULTIDE 12.5 mgPL/kg (filled squares), the circularized peptide […] (SEQ ID NO:3) (=TIP) 500 μg/animal (stars), or LUSUPULTIDE 12.5 mgPL/kg in combination with TIP 500 μg/animal (open squares) was administered intratracheally (administration volume 1.2 mL, solvent NaCl 0.9%). Arterial blood oxygenation (PaO2) was determined every 30 min up to 150 min after drug administration (t=210 min). […] Data are shown as mean ±SEM.*p<0.05, **p<0.01 versus LUSUPULTIDE 12.5 mgPL/kg
Male Wistar rats (230-280 g) were anaesthetized, catheterized to withdraw arterial blood, and ventilated with pure oxygen (=>PaO2˜500-550 mmHg). 30 min later lungs were ravaged 5-9 times with NaCl 0.9% (=>PaO2˜50-100 mmHg). After 60 min NaCl 0.9%, LUSUPULTIDE 12.5 mgPL/kg, TIP (500 μg/animal), or LUSUPULTIDE (12.5 mgPL/kg) in combination with TIP (500 μg/animal) was administered intratracheally (administration volume 1.2 mL, solvent NaCl 0.9%). Arterial blood oxygenation (PaO2) was determined every 30 min up to 150 min after drug administration (t=210 min).

CGQRETPEGAEAKPWYC [TIP]
Influence on arterial blood oxygenation (PaO2): no influence on oxygenation

Source: US8236750B2, “Composition comprising a pulmonary surfactant and a TNF-derived peptide” (Nycomed GmbH, priority 2004, dated 2012)
